In the NIST ThermoML archive (doi:10.1021/je7006956):
Numbers after ± are expanded uncertainties.

How the values were obtained:
[1] = for mass density: 101.33 kPa, Pycnometric method; for mass density / viscosity: Liquid
[2] = cn = amount concentration of the nth substance listed, in mol/dm3; settings: 101 kPa, Liquid, Pycnometric method

## O=C(c1ccccc1)N(O)c1ccccc1 [N-phenylbenzohydroxamic acid]
[1]; Crystal, visual observation
  Normal melting temperature: 121.00 ± 1 °C

## O=C(c1ccccc1)N(O)c1ccccc1 [N-phenylbenzohydroxamic acid] + C[S+](C)[O-]
[2]; 298.15 K, c1 = 0.0469
  mass density: 1097.23 ± 2.5 kg/m3
[2]; 298.15 K, c1 = 0.0938
  mass density: 1098.39 ± 2.5 kg/m3
[2]; 298.15 K, c1 = 0.1408
  mass density: 1098.59 ± 2.5 kg/m3
[2]; 298.15 K, c1 = 0.1877
  mass density: 1099.36 ± 2.4 kg/m3
[2]; 298.15 K, c1 = 0.2347
  mass density: 1100.14 ± 2.4 kg/m3
[2]; 298.15 K, c1 = 0.2816
  mass density: 1100.75 ± 2.4 kg/m3
[2]; 298.15 K, c1 = 0.3286
  mass density: 1101.46 ± 2.4 kg/m3
[2]; 298.15 K, c1 = 0.3755
  mass density: 1102.02 ± 2.3 kg/m3
[2]; 298.15 K, c1 = 0.4225
  mass density: 1102.75 ± 2.3 kg/m3
[2]; 298.15 K, c1 = 0.4694
  mass density: 1102.8 ± 2.3 kg/m3
[2]; 303.15 K, c1 = 0.0469
  mass density: 1093.69 ± 2.5 kg/m3
[2]; 303.15 K, c1 = 0.0938
  mass density: 1094.33 ± 2.5 kg/m3
[2]; 303.15 K, c1 = 0.1408
  mass density: 1094.95 ± 2.5 kg/m3
[2]; 303.15 K, c1 = 0.1877
  mass density: 1096.03 ± 2.5 kg/m3
[2]; 303.15 K, c1 = 0.2347
  mass density: 1097.27 ± 2.4 kg/m3
[2]; 303.15 K, c1 = 0.2816
  mass density: 1098.29 ± 2.4 kg/m3
[2]; 303.15 K, c1 = 0.3286
  mass density: 1098.91 ± 2.4 kg/m3
[2]; 303.15 K, c1 = 0.3755
  mass density: 1099.88 ± 2.3 kg/m3
[2]; 303.15 K, c1 = 0.4225
  mass density: 1100.55 ± 2.3 kg/m3
[2]; 303.15 K, c1 = 0.4694
  mass density: 1100.96 ± 2.3 kg/m3
[2]; 308.15 K, c1 = 0.0469
  mass density: 1089.07 ± 2.5 kg/m3
[2]; 308.15 K, c1 = 0.0938
  mass density: 1090.08 ± 2.5 kg/m3
[2]; 308.15 K, c1 = 0.1408
  mass density: 1091.61 ± 2.5 kg/m3
[2]; 308.15 K, c1 = 0.1877
  mass density: 1091.83 ± 2.5 kg/m3
[2]; 308.15 K, c1 = 0.2347
  mass density: 1093.14 ± 2.5 kg/m3
[2]; 308.15 K, c1 = 0.2816
  mass density: 1094.08 ± 2.4 kg/m3
[2]; 308.15 K, c1 = 0.3286
  mass density: 1095.64 ± 2.4 kg/m3
[2]; 308.15 K, c1 = 0.3755
  mass density: 1096.52 ± 2.4 kg/m3
[2]; 308.15 K, c1 = 0.4225
  mass density: 1097.67 ± 2.3 kg/m3
[2]; 308.15 K, c1 = 0.4694
  mass density: 1098.81 ± 2.3 kg/m3
[2]; 313.15 K, c1 = 0.0469
  mass density: 1084.72 ± 2.6 kg/m3
[2]; 313.15 K, c1 = 0.0938
  mass density: 1086.26 ± 2.5 kg/m3
[2]; 313.15 K, c1 = 0.1408
  mass density: 1086.93 ± 2.5 kg/m3
[2]; 313.15 K, c1 = 0.1877
  mass density: 1087.56 ± 2.5 kg/m3
[2]; 313.15 K, c1 = 0.2347
  mass density: 1088.34 ± 2.5 kg/m3
[2]; 313.15 K, c1 = 0.2816
  mass density: 1089.59 ± 2.4 kg/m3
[2]; 313.15 K, c1 = 0.3286
  mass density: 1090.74 ± 2.4 kg/m3
[2]; 313.15 K, c1 = 0.3755
  mass density: 1091.97 ± 2.4 kg/m3
[2]; 313.15 K, c1 = 0.4225
  mass density: 1093.11 ± 2.4 kg/m3
[2]; 313.15 K, c1 = 0.4694
  mass density: 1094.24 ± 2.4 kg/m3
[2]; 318.15 K, c1 = 0.0469
  mass density: 1078.8 ± 2.6 kg/m3
[2]; 318.15 K, c1 = 0.0938
  mass density: 1080.58 ± 2.6 kg/m3
[2]; 318.15 K, c1 = 0.1408
  mass density: 1081.55 ± 2.5 kg/m3
[2]; 318.15 K, c1 = 0.1877
  mass density: 1082.82 ± 2.5 kg/m3
[2]; 318.15 K, c1 = 0.2347
  mass density: 1083.33 ± 2.5 kg/m3
[2]; 318.15 K, c1 = 0.2816
  mass density: 1084.33 ± 2.4 kg/m3
[2]; 318.15 K, c1 = 0.3286
  mass density: 1085.8 ± 2.4 kg/m3
[2]; 318.15 K, c1 = 0.3755
  mass density: 1086.86 ± 2.4 kg/m3
[2]; 318.15 K, c1 = 0.4225
  mass density: 1087.92 ± 2.4 kg/m3
[2]; 318.15 K, c1 = 0.4694
  mass density: 1089.02 ± 2.4 kg/m3

## C[S+](C)[O-] [dimethyl sulfoxide]
[1]; 298.15 K
  mass density: 1094.75 ± 2.6 kg/m3
  viscosity: 1.993 ± 0.096 mPa·s
[1]; 303.15 K
  mass density: 1090.76 ± 2.6 kg/m3
  viscosity: 1.801 ± 0.088 mPa·s
[1]; 308.15 K
  mass density: 1086.06 ± 2.6 kg/m3
  viscosity: 1.652 ± 0.081 mPa·s
[1]; 313.15 K
  mass density: 1080.45 ± 2.6 kg/m3
  viscosity: 1.516 ± 0.075 mPa·s
[1]; 318.15 K
  mass density: 1075.26 ± 2.6 kg/m3
  viscosity: 1.398 ± 0.07 mPa·s
